{
  "source": "ChEMBL document CHEMBL4270663",
  "about": "“6-Benzhydryl-4-amino-quinolin-2-ones as Potent Cannabinoid Type 1 (CB1) Receptor Inverse Agonists and Chemical Modifications for Peripheral Selectivity” (J Med Chem, 2018)",
  "key": {"[1]": {"experiment": "Drug uptake in brain of diet-induced obese C57BL/6J mouse model at 10 mg/kg, po administered as daily dose measured at 2 hrs post last dose on day 23", "type": "ADME, organism-based", "conditions": "in vivo"}, "Cannabinoid receptor 1 [2]": {"target": "T1, Cannabinoid receptor 1 (Homo sapiens, UniProt P21554)", "T1 sequence (P21554 whole entry)": "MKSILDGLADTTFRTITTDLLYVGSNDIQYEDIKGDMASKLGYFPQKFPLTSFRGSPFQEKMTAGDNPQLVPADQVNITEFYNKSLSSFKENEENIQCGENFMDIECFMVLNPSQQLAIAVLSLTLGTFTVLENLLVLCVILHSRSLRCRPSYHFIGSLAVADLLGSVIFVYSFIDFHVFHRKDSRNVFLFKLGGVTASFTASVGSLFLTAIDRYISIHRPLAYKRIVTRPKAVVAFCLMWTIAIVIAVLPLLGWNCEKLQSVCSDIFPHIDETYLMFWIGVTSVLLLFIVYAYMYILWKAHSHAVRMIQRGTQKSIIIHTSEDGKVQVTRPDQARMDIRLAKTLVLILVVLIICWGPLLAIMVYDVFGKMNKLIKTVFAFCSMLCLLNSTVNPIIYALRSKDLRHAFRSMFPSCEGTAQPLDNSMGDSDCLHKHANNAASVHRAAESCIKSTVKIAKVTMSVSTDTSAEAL", "experiment": "Inverse agonist activity at human CB1 receptor expressed in HEK293 cells assessed as inhibition of forskolin-induced cAMP accumulation after 30 mins by HTRF assay", "type": "functional, cell-based"}, "[3]": {"experiment": "Metabolic stability in mouse liver microsomes assessed as parent compound remaining at 1 uM after 10 mins in presence of NADPH", "type": "ADME, microsome", "conditions": "read-out: Stability"}, "Cytochrome P450 2C19": {"target": "Cytochrome P450 2C19 (Homo sapiens, UniProt P33261)", "sequence (P33261 whole entry)": "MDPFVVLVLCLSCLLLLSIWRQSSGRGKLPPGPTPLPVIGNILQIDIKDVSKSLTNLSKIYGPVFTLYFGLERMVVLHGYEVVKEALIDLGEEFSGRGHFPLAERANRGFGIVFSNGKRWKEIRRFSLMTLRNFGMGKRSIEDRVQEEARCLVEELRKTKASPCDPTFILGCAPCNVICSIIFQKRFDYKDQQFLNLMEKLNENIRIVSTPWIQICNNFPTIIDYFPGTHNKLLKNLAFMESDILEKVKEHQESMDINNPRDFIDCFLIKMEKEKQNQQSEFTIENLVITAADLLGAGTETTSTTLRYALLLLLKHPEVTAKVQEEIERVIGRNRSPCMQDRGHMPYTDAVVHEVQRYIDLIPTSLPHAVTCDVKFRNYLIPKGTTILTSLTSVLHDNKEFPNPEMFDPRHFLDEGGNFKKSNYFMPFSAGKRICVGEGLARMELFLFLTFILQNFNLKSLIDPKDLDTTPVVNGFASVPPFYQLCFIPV", "experiment": "Inhibition of CYP2C19 in human liver microsomes using (S)-mephenytoin as substrate after 10 to 30 mins by LC/MS analysis", "type": "ADME"}, "Cannabinoid receptor 1 [4]": {"target": "T1, Cannabinoid receptor 1", "experiment": "biochemical", "type": "cell-based, CHO"}, "[5]": {"experiment": "Drug uptake in C57BL/6J mouse plasma at 20 mg/kg, po measured after 4 hrs", "type": "ADME, organism-based"}, "[6]": {"experiment": "Drug uptake in C57BL/6J mouse brain at 20 mg/kg, po measured after 1 hr", "type": "ADME, organism-based", "conditions": "in vivo"}, "[7]": {"experiment": "Drug uptake in C57BL/6J mouse brain at 20 mg/kg, po measured after 4 hrs", "type": "ADME, organism-based", "conditions": "in vivo"}, "[8]": {"experiment": "Ratio of drug level in C57BL/6J mouse brain to plasma at 20 mg/kg, po measured after 1 hr", "type": "ADME, organism-based", "conditions": "read-out: BPR"}, "[9]": {"experiment": "Ratio of drug level in C57BL/6J mouse brain to plasma at 20 mg/kg, po measured after 4 hrs", "type": "ADME, organism-based", "conditions": "read-out: BPR"}, "[10]": {"experiment": "Drug uptake in plasma of wild type CF-1 mouse at 20 mg/kg, po measured at 2 hrs post last dose on day 1", "type": "ADME, organism-based"}, "[11]": {"experiment": "Drug uptake in plasma of MDR1a knockout CF-1 mouse at 20 mg/kg, po measured at 2 hrs post last dose on day 1", "type": "ADME, organism-based"}, "[12]": {"experiment": "Drug uptake in brain of wild type CF-1 mouse at 20 mg/kg, po measured at 2 hrs post last dose on day 2", "type": "ADME, organism-based", "conditions": "in vivo"}, "Cannabinoid receptor 1 [13]": {"target": "T1, Cannabinoid receptor 1", "experiment": "Potency index, ratio of rimonabant IC50 to compound IC50 for displacement of [3H]-CP-55940 from human CB1 receptor expressed in CHO-K1 cell membranes"}, "[14]": {"target": "Voltage-gated inwardly rectifying potassium channel KCNH2 (Homo sapiens, UniProt Q12809)", "sequence (Q12809 whole entry)": "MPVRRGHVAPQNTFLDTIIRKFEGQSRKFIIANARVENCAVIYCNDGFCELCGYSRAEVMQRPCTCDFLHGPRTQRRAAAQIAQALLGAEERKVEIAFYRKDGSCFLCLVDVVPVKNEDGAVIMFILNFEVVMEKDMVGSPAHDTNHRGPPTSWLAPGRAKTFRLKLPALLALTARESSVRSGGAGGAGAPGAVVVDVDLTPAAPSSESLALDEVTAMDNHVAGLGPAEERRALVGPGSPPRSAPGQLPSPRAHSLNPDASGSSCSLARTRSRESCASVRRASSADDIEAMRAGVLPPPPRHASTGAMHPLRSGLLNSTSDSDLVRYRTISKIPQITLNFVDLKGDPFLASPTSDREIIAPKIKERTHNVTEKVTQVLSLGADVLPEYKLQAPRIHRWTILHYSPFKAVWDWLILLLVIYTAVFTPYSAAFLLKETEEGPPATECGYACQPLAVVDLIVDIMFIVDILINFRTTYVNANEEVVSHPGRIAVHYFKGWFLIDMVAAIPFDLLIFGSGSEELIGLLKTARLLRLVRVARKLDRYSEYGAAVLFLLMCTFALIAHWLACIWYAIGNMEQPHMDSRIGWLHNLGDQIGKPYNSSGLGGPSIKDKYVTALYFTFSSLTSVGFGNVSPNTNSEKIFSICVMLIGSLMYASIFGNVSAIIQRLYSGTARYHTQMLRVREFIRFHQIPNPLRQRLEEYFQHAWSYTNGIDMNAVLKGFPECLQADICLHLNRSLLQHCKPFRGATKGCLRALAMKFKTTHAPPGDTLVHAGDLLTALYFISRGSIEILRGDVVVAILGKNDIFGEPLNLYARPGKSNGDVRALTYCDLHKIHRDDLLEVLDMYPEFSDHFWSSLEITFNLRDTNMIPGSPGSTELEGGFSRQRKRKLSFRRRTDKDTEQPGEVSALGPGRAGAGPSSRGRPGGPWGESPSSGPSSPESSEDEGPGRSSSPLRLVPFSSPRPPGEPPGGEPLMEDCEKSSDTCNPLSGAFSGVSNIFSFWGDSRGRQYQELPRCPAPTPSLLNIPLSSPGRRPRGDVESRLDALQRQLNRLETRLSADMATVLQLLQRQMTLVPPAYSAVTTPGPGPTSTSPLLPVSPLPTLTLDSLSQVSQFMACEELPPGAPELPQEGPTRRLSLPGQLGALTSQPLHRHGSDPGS", "experiment": "Inhibition of human ERG"}, "[15]": {"experiment": "Protein binding in plasma (unknown origin)", "type": "ADME, cell-free", "conditions": "unidentified, read-out: PPB"}, "[16]": {"experiment": "Cmax in C57BL/6J mouse at 20 mg/kg, po administered via gavage by LC-MS/MS analysis", "type": "ADME, organism-based", "parameters": "dose 20 mg/kg, route oral", "conditions": "in vivo"}, "[17]": {"experiment": "AUClast in C57BL/6J mouse at 20 mg/kg, po administered via gavage by LC-MS/MS analysis", "type": "ADME, organism-based", "conditions": "in vivo"}, "[18]": {"experiment": "Half life in C57BL/6J mouse at 20 mg/kg, po administered via gavage by LC-MS/MS analysis", "type": "ADME, organism-based", "conditions": "in vivo"}, "[19]": {"experiment": "Oral bioavailability in C57BL/6J mouse at 20 mg/kg administered via gavage by LC-MS/MS analysis", "type": "ADME, organism-based", "conditions": "in vivo"}, "[20]": {"experiment": "Drug uptake in brain of diet-induced obese C57BL/6J mouse model at 30 mg/kg administered as daily dose measured at 2 hrs post last dose on day 5", "type": "ADME, organism-based", "conditions": "in vivo"}, "[21]": {"experiment": "Drug uptake in plasma of diet-induced obese C57BL/6J mouse model at 1 mg/kg, po administered as daily dose measured at 2 hrs post last dose on day 22", "type": "ADME, organism-based"}, "[22]": {"experiment": "Drug uptake in plasma of diet-induced obese C57BL/6J mouse model at 3 mg/kg, po administered as daily dose measured at 2 hrs post last dose on day 22", "type": "ADME, organism-based"}, "[23]": {"experiment": "Drug uptake in plasma of diet-induced obese C57BL/6J mouse model at 10 mg/kg, po administered as daily dose measured at 2 hrs post last dose on day 22", "type": "ADME, organism-based"}, "[24]": {"experiment": "Drug uptake in brain of diet-induced obese C57BL/6J mouse model at 1 mg/kg, po administered as daily dose measured at 2 hrs post last dose on day 2", "type": "ADME, organism-based", "conditions": "in vivo"}, "[25]": {"experiment": "Drug uptake in brain of diet-induced obese C57BL/6J mouse model at 3 mg/kg, po administered as daily dose measured at 2 hrs post last dose on day 2", "type": "ADME, organism-based", "conditions": "in vivo"}, "[26]": {"experiment": "Drug uptake in brain of diet-induced obese C57BL/6J mouse model at 10 mg/kg, po administered as daily dose measured at 2 hrs post last dose on day 2", "type": "ADME, organism-based", "conditions": "in vivo"}, "[27]": {"experiment": "Ratio of drug level in brain to plasma of diet-induced obese C57BL/6J mouse model at 10 mg/kg, po administered as daily dose measured at 2 hrs post last dose on day 23", "type": "ADME, organism-based", "conditions": "read-out: BPR"}, "Mus musculus [28]": {"tested_on": "Mus musculus", "experiment": "Antiobesity activity in diet induced obese C57BL/6J mouse model assessed as decrease in body weight at 30 mg/kg administered as daily dose measured every day for 5 days", "type": "functional, organism-based"}, "Mus musculus [29]": {"tested_on": "Mus musculus", "experiment": "Antiobesity activity in diet induced obese C57BL/6J mouse model assessed as decrease in body weight at 3 to 10 mg/kg, po administered as daily dose measured every day for 5 days and continuing every other day till day 17", "type": "functional, organism-based"}, "Mus musculus [30]": {"tested_on": "Mus musculus", "experiment": "Induction of insulin sensitivity in diet induced obese C57BL/6J mouse model at 3 to 10 mg/kg, po administered as daily dose measured at day 26 post last dose", "type": "functional, organism-based"}, "Mus musculus [31]": {"tested_on": "Mus musculus", "experiment": "In vivo receptor occupancy at CB1 receptor in brain of diet induced obese C57BL/6J mouse model at 30 mg/kg, po administered as daily dose for 5 days measured 10 mins post last dose in presence of [3H]-CP-55940 relative to control", "type": "functional"}},
  "note": "The source made the active and inactive calls. No cut-off for these calls is given here.",
  "data": [
    {"smiles": "O=c1cc(NC2CCN(S(=O)(=O)C(F)(F)F)CC2)c2cc(C(c3ccc(Cl)cc3)c3ccc(Cl)cc3)ccc2[nH]1", "values": [
      {"measurement": "Drug uptake", "setting": "[1]", "result": 0.329, "unit": "nmol/g"},
      {"measurement": "EC50", "setting": "Cannabinoid receptor 1 [2]", "result": "8.2 to 8.3", "unit": "nM"},
      {"measurement": "remaining at 10 min, 1 µM", "setting": "[3]", "result": 100, "unit": "%"},
      {"measurement": "IC50", "setting": "Cytochrome P450 2C19", "result": "> 10000", "unit": "nM"},
      {"measurement": "IC50", "setting": "Cannabinoid receptor 1 [4]", "result": 1.3, "unit": "nM"},
      {"measurement": "concentration at 4 h", "setting": "[5]", "result": 1.94, "unit": "µM"},
      {"measurement": "Drug uptake", "setting": "[6]", "result": 0.012, "unit": "nmol/g"},
      {"measurement": "Drug uptake", "setting": "[7]", "result": 0.019, "unit": "nmol/g"},
      {"measurement": "Kp at 1 h", "setting": "[8]", "result": 0.0073},
      {"measurement": "Kp at 4 h", "setting": "[9]", "result": 0.0099},
      {"measurement": "concentration at 2 h", "setting": "[10]", "result": 3.92, "unit": "µM"},
      {"measurement": "concentration at 2 h", "setting": "[11]", "result": 4.95, "unit": "µM"},
      {"measurement": "Drug uptake", "setting": "[12]", "result": 0.104, "unit": "nmol/g"},
      {"measurement": "Ratio IC50", "setting": "Cannabinoid receptor 1 [13]", "result": 6},
      {"measurement": "IC50", "setting": "[14]", "result": "> 50000", "unit": "nM"},
      {"measurement": "fraction unbound", "setting": "[15]", "result": 0.0001},
      {"measurement": "Cmax", "setting": "[16]", "result": 3.7, "unit": "µM"},
      {"measurement": "AUC(0-t)", "setting": "[17]", "result": 28.4, "unit": "µM·h"},
      {"measurement": "half-life", "setting": "[18]", "result": 7.26, "unit": "h"},
      {"measurement": "bioavailability", "setting": "[19]", "result": 13, "unit": "%"},
      {"measurement": "Drug uptake", "setting": "[20]", "result": 0.357, "unit": "nmol/g"},
      {"measurement": "concentration at 2 h", "setting": "[21]", "result": 0.843, "unit": "µM"},
      {"measurement": "concentration at 2 h", "setting": "[22]", "result": 2.55, "unit": "µM"},
      {"measurement": "concentration at 2 h", "setting": "[23]", "result": 8.65, "unit": "µM"},
      {"measurement": "Drug uptake", "setting": "[24]", "result": "< 4", "unit": "nmol/g"},
      {"measurement": "Drug uptake", "setting": "[25]", "result": "< 4", "unit": "nmol/g"},
      {"measurement": "Drug uptake", "setting": "[26]", "result": 0.102, "unit": "nmol/g"},
      {"measurement": "Kp at 2 h", "setting": "[27]", "result": 0.038},
      {"measurement": "Activity", "setting": "Mus musculus [28]", "result": "Active"},
      {"measurement": "Activity", "setting": "Mus musculus [29]", "result": "Active"},
      {"measurement": "Activity", "setting": "Mus musculus [30]", "result": "Active"},
      {"measurement": "Occ", "setting": "Mus musculus [31]", "result": 71.6, "unit": "%"}
    ]}
  ]
}
